Experimental data from ChEMBL document CHEMBL4819004, “Discovery of selective CDK9 degraders with enhancing antiproliferative activity through PROTAC conversion” (Eur J Med Chem, 2021).
Calls of active or inactive are those of the source. The calls are words filed in the database; no cut-off is given here.

Assays:
CDK9/cyclin T1 = CDK9/cyclin T1 (Homo sapiens, UniProt P50750); assay: Inhibition of CDK9/cyclin T (unknown origin) using YSPTSPSYSPTSPSYSPTSPKKK or histone H1 as substrate incubated for 2 hrs in presence of [gamma-33P]ATP by radioactive filter binding assay; type: protein-complex assay
MOLM-13 = assay: Antiproliferative activity against human MOLM-13 cells incubated for 72 hrs by MTT assay; type: functional, cell-based; conditions: MOLM-13, 72 h
B16 = assay: Antiproliferative activity against mouse B16 cells incubated for 72 hrs by MTT assay; type: functional, cell-based; conditions: B16, 72 h
HepG2 = assay: Antiproliferative activity against human HepG2 cells incubated for 72 hrs by MTT assay; type: functional, cell-based; conditions: HepG2, 72 h
[1] = molecular target: T1, Protein cereblon/Cyclin-dependent kinase 9 (Homo sapiens, UniProt P50750+Q96SW2); assay: Protac activity at CRBN/CDK9 in human MV4-11 cells assessed as induction of CDK9 degradation incubated for 6 hrs by Western blot assay; type: cell-based
[2] = molecular target: T1, Protein cereblon/Cyclin-dependent kinase 9; assay: Protac activity at CRBN/CDK9 in human MV4-11 cells assessed as induction of CDK9 degradation by measuring downregulation of MCL-1 protein expression level at 250 nM by western blot analysis; type: cell-based; conditions: time 1-12 hrs, TDE = time-dependent effect
MV4-11 [3] = assay: Induction of apoptosis in human MV4-11 cells assessed as total apoptotic cells at 1 nM after 6 hrs by AnnexinV-FITC/propidium iodide staining based flow cytometry (reference value: 9.75 %); type: functional
MV4-11 [4] = assay: Induction of apoptosis in human MV4-11 cells assessed as total apoptotic cells at 30 nM after 6 hrs by AnnexinV-FITC/propidium iodide staining based flow cytometry (reference value: 9.75 %); type: functional
MV4-11 [5] = assay: Induction of apoptosis in human MV4-11 cells assessed as total apoptotic cells at 500 nM after 6 hrs by AnnexinV-FITC/propidium iodide staining based flow cytometry (reference value: 9.75 %); type: functional
MV4-11 [6] = assay: Induction of apoptosis in human MV4-11 cells assessed as total apoptotic cells at 1000 nM after 6 hrs by AnnexinV-FITC/propidium iodide staining based flow cytometry (reference value: 9.75 %); type: functional
MV4-11 [7] = assay: Induction of apoptosis in human MV4-11 cells assessed as viable cells at 1 nM after 6 hrs by AnnexinV-FITC/propidium iodide staining based flow cytometry (reference value: 90.1 %); type: functional; conditions: read-out: Activity
MV4-11 [8] = assay: Induction of apoptosis in human MV4-11 cells assessed as viable cells at 250 nM after 6 hrs by AnnexinV-FITC/propidium iodide staining based flow cytometry (reference value: 90.1 %); type: functional; conditions: read-out: Activity
MV4-11 [9] = assay: Induction of apoptosis in human MV4-11 cells assessed as viable cells at 500 nM after 6 hrs by AnnexinV-FITC/propidium iodide staining based flow cytometry (reference value: 90.1 %); type: functional; conditions: read-out: Activity
MV4-11 [10] = assay: Induction of apoptosis in human MV4-11 cells assessed as viable cells at 1000 nM after 6 hrs by AnnexinV-FITC/propidium iodide staining based flow cytometry (reference value: 90.1 %); type: functional; conditions: read-out: Activity
MV4-11 [11] = assay: Induction of apoptosis in human MV4-11 cells assessed as early apoptotic cells at 1 nM after 6 hrs by AnnexinV-FITC/propidium iodide staining based flow cytometry (reference value: 5.36 %); type: functional
MV4-11 [12] = assay: Induction of apoptosis in human MV4-11 cells assessed as early apoptotic cells at 100 nM after 6 hrs by AnnexinV-FITC/propidium iodide staining based flow cytometry (reference value: 5.36 %); type: functional
MV4-11 [13] = assay: Induction of apoptosis in human MV4-11 cells assessed as early apoptotic cells at 250 nM after 6 hrs by AnnexinV-FITC/propidium iodide staining based flow cytometry (reference value: 5.36 %); type: functional
MV4-11 [14] = assay: Induction of apoptosis in human MV4-11 cells assessed as early apoptotic cells at 1000 nM after 6 hrs by AnnexinV-FITC/propidium iodide staining based flow cytometry (reference value: 5.36 %); type: functional
MV4-11 [15] = assay: Induction of apoptosis in human MV4-11 cells assessed as late apoptotic cells at 250 nM after 6 hrs by AnnexinV-FITC/propidium iodide staining based flow cytometry (reference value: 4.29%); type: functional
MV4-11 [16] = assay: Induction of apoptosis in human MV4-11 cells assessed as necrotic cells at 1 nM after 6 hrs by AnnexinV-FITC/propidium iodide staining based flow cytometry (reference value: 0.16 %); type: functional
MV4-11 [17] = assay: Induction of apoptosis in human MV4-11 cells assessed as necrotic cells at 500 nM after 6 hrs by AnnexinV-FITC/propidium iodide staining based flow cytometry (reference value: 0.16 %); type: functional
[18] = molecular target: T1, Protein cereblon/Cyclin-dependent kinase 9; assay: Protac activity at CRBN/CDK9 in human MV4-11 cells assessed as induction of CDK9 degradation at 250 nM pretreated for 2 hrs with CDK9 inhibitor, […] followed by incubation with compound for 6 hrs by western blot analysis; type: cell-based
[19] = molecular target: Protein cereblon/Cyclin-dependent kinase 7 (Homo sapiens) (UniProt P50613+Q96SW2); assay: PROTAC activity at CRBN/CDK7 in human MV4-11 cells assessed as induction of CDK7 degradation at 31.25 to 500 nM measured after 3 hrs by western blot analysis; type: cell-based; conditions: dose 31.25-500 nM
[20] = molecular target: Protein cereblon/Cyclin-dependent kinase 2 (Homo sapiens) (UniProt P24941+Q96SW2); assay: PROTAC activity at CRBN/CDK2 in human MV4-11 cells assessed as induction of CDK2 degradation at 31.25 to 500 nM measured after 3 hrs by western blot analysis; type: cell-based; conditions: dose 31.25-500 nM
[21] = molecular target: Protein cereblon/Cyclin-dependent kinase 1 (Homo sapiens) (UniProt P06493+Q96SW2); assay: PROTAC activity at CRBN/CDK1 in human MV4-11 cells assessed as induction of CDK1 degradation at 31.25 to 500 nM measured after 3 hrs by western blot analysis; type: cell-based; conditions: dose 31.25-500 nM
[22] = molecular target: T1, Protein cereblon/Cyclin-dependent kinase 9; assay: PROTAC activity at CRBN/CDK9 in human MV4-11 cells assessed as reduction in RNA PolII CTD phosphorylation at Ser5 residue measured after 6 hrs by western blot analysis; type: cell-based; conditions: dose 31.25-8000 nM

- IC50 (CDK9/cyclin T1): 8.68 nM
- IC50 (MOLM-13): 120 nM
- IC50 (B16): 1400 nM
- IC50 (HepG2): 2110 nM
- DC50 [1]: 7.62 nM
- Activity [2]: Tde
- Activity [18]: inactive
- Activity [19]: inactive
- Activity [20]: inactive
- Activity [21]: inactive
- Activity [22]: Dose-Dependent Effect
SMILES: COc1cc(F)ccc1-c1ncnc(Nc2cccc(CS(C)(=O)=NC(=O)CCCCCCCC(=O)NCCNc3cccc4c3C(=O)N(C3CCC(=O)NC3=O)C4=O)c2)n1 (stereo unspecified)
- Activity (MV4-11 [3]): 22.1%
- Activity (MV4-11 [4]): 22.3%
- Activity (MV4-11 [5]): 67.9%
- Activity (MV4-11 [6]): 80.4%
- viability at 0.001 µM (MV4-11 [7]): 79.1%
- viability at 0.25 µM (MV4-11 [8]): 40.1%
- viability at 0.5 µM (MV4-11 [9]): 31.3%
- viability at 1 µM (MV4-11 [10]): 28.2%
- Activity (MV4-11 [11]): 6.13%
- Activity (MV4-11 [12]): 11.5%
- Activity (MV4-11 [13]): 45.1%
- Activity (MV4-11 [14]): 54.4%
- Activity (MV4-11 [15]): 14.3%
- Activity (MV4-11 [16]): 0.77%
- Activity (MV4-11 [17]): 0.72%
